# Test results published in PMC13013135, “[^99mTc]Tc-PSMA-HSG for PSMA-targeted Hybrid Surgical Guidance: a new addition to the PSMA-I&S/I&T family” (European Journal of Nuclear Medicine and Molecular Imaging, 2025).
# Where two headings read alike, the source gives them in different places. Square brackets hold non-standard residues; d marks the D form. Peptide text beside a SMILES is read from it. * marks the point of attachment. X1 = O=C(O)CC[C@H](NC(=O)N[C@@H](CCCCNC(=O)CCCCCCC(=O)*)C(=O)O)C(=O)O; d2Nal = N[C@H](Cc1ccc2ccccc2c1)C(=O)O; Mercaptoacetyl = O=C(CS)*
# How the values were obtained:
# [1] = test system: PSMA expressing LNCaP cells; experiment: Dual tracer internalization assay; type: cell-based, human; conditions: 60 min, 37 °C, 0.5 nM tracer, normalized to ([^125I]IBA)KuE
# Experimental: Competitive binding experiments (IC50) were carried out in accordance with an established protocol using PSMA-expressing LNCaP cells and ([^125I]I-BA)KuE as standard radioligand. […] Please see the Supplementary Material for experimental details. […] The supernatant was removed, cells were washed with assay medium, and an acid wash (50 mM NaOAc in saline, pH 4.5) was performed to remove membrane-associated activity. Cells were then lysed using 1N NaOH, and internalized activity was quantified using a γ-counter. […] Tocris Bioscience, Bristol, UK) and normalized to the specific internalization observed for the radioiodinated reference compound in the same experiment. Data represent means ± SD (n=3) from three separate determinations.
# [2] = Lipophilicity, modified shake-flask method; type: physicochemical
# Experimental: The lipophilicity of [^99mTc]Tc-PSMA-HSG was determined via a modified shake-flask method as described.
# human serum = experiment: Plasma protein binding (B50), ultrafiltration, human serum; type: in vitro ADME
# Experimental: (§1) A detailed experimental procedure is provided in the Supplementary Material. […] Briefly, protein solutions (maximum concentration: […] Samples were briefly vortexed and incubated for 30 min at 37 °C. […] The filter units were then removed from the centrifugal tubes and washed twice with 300 µL PBS to recover the protein fraction. The activity in the filtrate, filter and protein fraction were then quantified using a γ-counter. […] The percentages of radioligand bound to the respective proteins are represented as means ± standard deviation (SD) of three independent experiments.
# [3] = biological target: human serum albumin (HSA) (Homo sapiens, UniProt P02768); experiment: Plasma protein binding (B50), ultrafiltration, HSA; type: in vitro ADME
# Experimental: as §1
# mouse serum = experiment: Plasma protein binding (B50), ultrafiltration, mouse serum; type: in vitro ADME
# Experimental: as §1
# [4] = test system: LNCaP xenograft bearing NSG mice; experiment: Biodistribution in LNCaP xenograft bearing NSG mice; conditions: 6 h p.i., 0.1 nmol
# Experimental: The biodistribution of [^99mTc]Tc-PSMA-HSG and of the reference compound [^99mTc]Tc-PSMA-I&S was investigated in LNCaP xenograft bearing NSG mice (see supplemental information).
# Mice were injected intravenously with the respective ^99mTc-labeled tracer (24–34 MBq (fixed peptide dose of 1 nmol/mouse) or 3.7–7.6 MBq (fixed peptide doses of 0.1 nmol/mouse), respectively) and were sacrificed at 2 h (1 nmol-cohort) or 6 h p.i. (0.1 nmol-cohort), respectively. The organs of interest were dissected, and the activity concentration in weighed tissue samples was quantified using an AMG Automatic Gamma Counter (Hidex, Turku, Finland). Biodistribution data are given in %iD/g and represent means ± SD (groups of n = 5 animals). Statistical analysis (Multiple unpaired t-test) of biodistribution data and tumor/organ ratios was performed using GraphPad Prism (Boston, USA).
# To induce LNCaP tumor growth, a suspension of LNCaP cells (approx. 5 x 10^6 cells/mouse) in 200 μl of a 1:1 mixture of serum-free DMEM and Matrigel (BD Biosciences) was injected subcutaneously into the right shoulder of male NOD scid gamma (NSG) mice (6-8 weeks, in-house breeding, Dpt. of Oncology, University of Lausanne). After approximately 9 weeks, tumor size reached 4-8 mm in diameter and the mice were used for the in vivo studies.
# [5] = cited from earlier work
# PSMA = PSMA (Homo sapiens, UniProt Q04609); experiment: Competitive binding (IC50) on LNCaP cells with ([^125I]I-BA)KuE as radioligand; conditions: for IC50: LNCaP cells, ([^125I]I-BA)KuE radioligand, free mas3-chelator
# Experimental: Competitive binding experiments (IC50) were carried out in accordance with an established protocol using PSMA-expressing LNCaP cells and ([^125I]I-BA)KuE as standard radioligand. […] Please see the Supplementary Material for experimental details. For IC50 determination, approximately 150.000 cells/well were seeded on 24-well plates one day prior to the experiment. For internalization studies, 125.000 cells/well in PDL-coated 24-well plates were used. Cell counting was carried out using a Corning cell counter (Cytosmart, Eindhoven, The Netherlands).
# Chain of human serum albumin (HSA) (P02768 25-609): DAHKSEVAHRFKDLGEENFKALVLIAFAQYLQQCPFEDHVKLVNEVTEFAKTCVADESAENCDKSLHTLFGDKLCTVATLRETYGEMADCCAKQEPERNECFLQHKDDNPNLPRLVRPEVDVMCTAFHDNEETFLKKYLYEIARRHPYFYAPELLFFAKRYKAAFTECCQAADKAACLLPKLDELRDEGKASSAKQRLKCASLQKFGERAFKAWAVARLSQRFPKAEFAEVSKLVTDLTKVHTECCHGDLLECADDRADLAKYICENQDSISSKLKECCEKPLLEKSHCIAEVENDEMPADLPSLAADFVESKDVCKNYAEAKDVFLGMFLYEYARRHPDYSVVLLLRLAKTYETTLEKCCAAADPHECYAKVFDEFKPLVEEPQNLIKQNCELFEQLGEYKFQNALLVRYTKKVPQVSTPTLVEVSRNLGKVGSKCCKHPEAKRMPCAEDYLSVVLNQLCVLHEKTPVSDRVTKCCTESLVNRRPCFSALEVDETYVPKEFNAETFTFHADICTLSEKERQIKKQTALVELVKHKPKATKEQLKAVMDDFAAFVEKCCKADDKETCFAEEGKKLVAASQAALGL
# Chain of PSMA (Q04609 whole entry): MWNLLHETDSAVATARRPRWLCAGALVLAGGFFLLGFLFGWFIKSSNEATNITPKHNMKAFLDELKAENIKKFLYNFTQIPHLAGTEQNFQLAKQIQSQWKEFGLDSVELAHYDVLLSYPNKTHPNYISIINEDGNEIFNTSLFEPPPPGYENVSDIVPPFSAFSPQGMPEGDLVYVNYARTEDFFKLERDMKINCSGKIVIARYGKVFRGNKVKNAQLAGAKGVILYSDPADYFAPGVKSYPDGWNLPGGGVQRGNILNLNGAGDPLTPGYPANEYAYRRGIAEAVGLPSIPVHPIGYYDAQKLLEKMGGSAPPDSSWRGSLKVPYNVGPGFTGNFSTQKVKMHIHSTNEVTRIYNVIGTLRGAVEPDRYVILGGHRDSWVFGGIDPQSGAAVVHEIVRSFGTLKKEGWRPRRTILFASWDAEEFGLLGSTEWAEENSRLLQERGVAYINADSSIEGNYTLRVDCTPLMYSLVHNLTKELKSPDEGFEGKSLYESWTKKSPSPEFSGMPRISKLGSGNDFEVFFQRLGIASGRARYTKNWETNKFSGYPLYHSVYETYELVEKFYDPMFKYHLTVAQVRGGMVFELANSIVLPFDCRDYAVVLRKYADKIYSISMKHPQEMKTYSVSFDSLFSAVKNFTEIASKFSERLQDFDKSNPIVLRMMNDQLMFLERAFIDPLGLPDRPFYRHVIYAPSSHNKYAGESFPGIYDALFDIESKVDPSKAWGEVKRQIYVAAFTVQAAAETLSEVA
smiles,measurement,setting,value
"C[N+]1=C(/C=C/C2=CC(=C/C=C3/N(CCCCCC(=O)NCCCC[C@@H](NC(=O)[C@@H](CO)NC(=O)[C@@H](CO)NC(=O)[C@@H](CO)NC(=O)CS)C(=O)N[C@H](Cc4ccc(O)cc4)C(=O)N[C@H](Cc4ccc5ccccc5c4)C(=O)N[C@H](CCCCNC(=O)CCCCCCC(=O)NCCCC[C@H](NC(=O)N[C@@H](CCC(=O)O)C(=O)O)C(=O)O)C(=O)O)c4ccc(S(=O)(=O)[O-])cc4C3(C)C)/CCC2)C(C)(C)c2cc(S(=O)(=O)O)ccc21 [[^99mTc]Tc-PSMA-HSG-Cy7-I, metal not drawn]",internalization [% of reference],[1],17 ± 2 % of reference
same,logD,[2],-2.63
same,B50 HS,human serum,246 ± 27
same,B50 HSA,[3],165 ± 21
same,B50 MS,mouse serum,93 ± 16
"O=C(O)CC[C@H](NC(=O)N[C@@H](CCCCNC(=O)CCCCCCC(=O)NCCCC[C@@H](NC(=O)[C@@H](Cc1ccc2ccccc2c1)NC(=O)[C@@H](Cc1ccc(O)cc1)NC(=O)[C@@H](CO)NC(=O)[C@@H](CO)NC(=O)[C@@H](CO)NC(=O)CS)C(=O)O)C(=O)O)C(=O)O [[^99mTc]Tc-PSMA-I&S, [^99mTc]Tc-mas3-y-nal-k-Sub-KuE, metal not drawn, reference compound] (Mercaptoacetyl-[dS][dS][dS][dY][d2Nal][dK](X1)-OH)",lipophilicity [logD],[2],−3.01
same,B50 HS,"human serum; human serum, molar excess of protein over radioligand for half-maximal binding, n = 3",321 ± 18
same,B50 HSA,"[3]; HSA in PBS, molar excess of protein over radioligand for half-maximal binding, n = 3",324 ± 6
same,B50 MS,"mouse serum; mouse serum, molar excess of protein over radioligand for half-maximal binding, n = 3",652 ± 77
same,"biodistribution, LNCaP tumor",[4],12.9 ± 1.4 %iD/g
same,"biodistribution, blood",[4],0.15 ± 0.03 %iD/g
same,"biodistribution, heart",[4],0.24 ± 0.05 %iD/g
same,"biodistribution, intestines",[4],1.8 ± 0.8 %iD/g
same,"biodistribution, kidneys",[4],147.0 ± 10 %iD/g
same,"biodistribution, liver",[4],0.8 ± 0.4 %iD/g
same,"biodistribution, lung",[4],2.2 ± 0.2 %iD/g
same,"biodistribution, muscle",[4],0.2 ± 0.04 %iD/g
same,"biodistribution, pancreas",[4],0.7 ± 0.1 %iD/g
same,"biodistribution, salivary glands",[4],3.2 ± 0.8 %iD/g
same,"biodistribution, spleen",[4],14.2 ± 2.0 %iD/g
same,"biodistribution, stomach",[4],0.3 ± 0.1 %iD/g
same,absorbed dose coefficient of the urinary bladder wall,[5]; patients,0.000355 mGy/MBq
same,effective dose,[5]; patients,0.0052 mSv/MBq
same,kidney absorbed dose coefficient,[5]; patients,0.0733 mGy/MBq
same,salivary gland absorbed dose coefficient,[5]; patients,0.0221 mGy/MBq
"CC[N+]1=C(/C=C/C=C/C=C/C=C2/N(CCCCCC(=O)NCCCC[C@@H](NC(=O)[C@@H](CO)NC(=O)[C@@H](CO)NC(=O)[C@@H](CO)NC(=O)CS)C(=O)N[C@H](Cc3ccc(O)cc3)C(=O)N[C@H](Cc3ccc4ccccc4c3)C(=O)N[C@H](CCCCNC(=O)CCCCCCC(=O)NCCCC[C@H](NC(=O)N[C@@H](CCC(=O)O)C(=O)O)C(=O)O)C(=O)O)c3ccc(S(=O)(=O)[O-])cc3C2(C)C)C(C)(C)c2cc(S(=O)(=O)O)ccc21 [[^99mTc]Tc-PSMA-HSG-Cy7-II, metal not drawn]",internalization [% of reference],[1],28 ± 7 % of reference
same,logD,[2],-2.71
same,B50 HS,human serum,121 ± 16
same,B50 HSA,[3],149 ± 14
same,B50 MS,mouse serum,53 ± 7
CC(=O)SCC(=O)N[C@H](CO)C(=O)N[C@H](CO)C(=O)N[C@H](CO)C(=O)N[C@H](CCCCNC(=O)CCCCCN1/C(=C/C=C/C=C/C2=[N+](C)c3ccc(S(=O)(=O)[O-])cc3C2(C)C)C(C)(C)c2cc(S(=O)(=O)O)ccc21)C(=O)N[C@H](Cc1ccc(O)cc1)C(=O)N[C@H](Cc1ccc2ccccc2c1)C(=O)N[C@H](CCCCNC(=O)CCCCCCC(=O)NCCCC[C@H](NC(=O)N[C@@H](CCCC(=O)O)C(=O)O)C(=O)O)C(=O)O [Aad-PSMA-HSG],decrease in PSMA affinity compared to PSMA-HSG,PSMA,fifteen-fold reduction
O=C(O)CC[C@H](NC(=O)N[C@@H](CCCCNC(=O)c1ccc([18F])nc1)C(=O)O)C(=O)O [[^18F]DCFPyL],effective dose,[5]; patients,0.0165 mSv/MBq
CCN1/C(=C/C=C/C=C/C=C/C2=[N+](CCCCCC(=O)NCCCC[C@@H](NC(=O)[C@@H](CO)NC(=O)[C@@H](CO)NC(=O)[C@@H](CO)NC(=O)CSC(C)=O)C(=O)N[C@H](Cc3ccc(O)cc3)C(=O)N[C@H](Cc3ccc4ccccc4c3)C(=O)N[C@H](CCCCNC(=O)CCCCCCC(=O)NCCCC[C@H](NC(=O)N[C@@H](CCC(=O)O)C(=O)O)C(=O)O)C(=O)O)c3ccc(S(=O)(=O)[O-])cc3C2(C)C)C(C)(C)c2cc(S(=O)(=O)O)ccc21 [PSMA-HSG-Cy7-II],decrease in PSMA affinity compared to PSMA-HSG,PSMA,twofold decreased
same,IC50,PSMA,73.1 ± 11.1 nM
O=C([O-])CN(CCN(CC(=O)[O-])Cc1cc(CCC(=O)NCCCCCC(=O)NCCCC[C@H](NC(=O)N[C@@H](CCC(=O)O)C(=O)O)C(=O)O)ccc1[O-])Cc1cc(CCC(=O)O)ccc1[O-].[68Ga+3].[OH3+] [[^68Ga]Ga-PSMA-11],effective dose,"[5]; human, in vivo",0.023 ± 0.004 mSv/MBq
CC(=O)SCC(=O)N[C@H](CO)C(=O)N[C@H](CO)C(=O)N[C@H](CO)C(=O)N[C@H](CCCCNC(=O)CCCCC[N+]1=C(/C=C/C2=CC(=C/C=C3/N(C)c4ccc(S(=O)(=O)O)cc4C3(C)C)/CCC2)C(C)(C)c2cc(S(=O)(=O)[O-])ccc21)C(=O)N[C@H](Cc1ccc(O)cc1)C(=O)N[C@H](Cc1ccc2ccccc2c1)C(=O)N[C@H](CCCCNC(=O)CCCCCCC(=O)NCCCC[C@H](NC(=O)N[C@@H](CCC(=O)O)C(=O)O)C(=O)O)C(=O)O [PSMA-HSG-Cy7-I],decrease in PSMA affinity compared to PSMA-HSG,PSMA,twofold decreased
same,IC50,PSMA,70.7 ± 10.8 nM
